# Data published in BindingDB's records for patent US20250042903 (H. Lee Moffitt Cancer Center and Research Institute, 2025).
# Target: Cyclin-dependent kinase 12 (Homo sapiens, UniProt Q9NYV4)
# Test: Not found
# Excerpt: Not found
# Cyclin-dependent kinase 12, sequence (Q9NYV4 whole entry): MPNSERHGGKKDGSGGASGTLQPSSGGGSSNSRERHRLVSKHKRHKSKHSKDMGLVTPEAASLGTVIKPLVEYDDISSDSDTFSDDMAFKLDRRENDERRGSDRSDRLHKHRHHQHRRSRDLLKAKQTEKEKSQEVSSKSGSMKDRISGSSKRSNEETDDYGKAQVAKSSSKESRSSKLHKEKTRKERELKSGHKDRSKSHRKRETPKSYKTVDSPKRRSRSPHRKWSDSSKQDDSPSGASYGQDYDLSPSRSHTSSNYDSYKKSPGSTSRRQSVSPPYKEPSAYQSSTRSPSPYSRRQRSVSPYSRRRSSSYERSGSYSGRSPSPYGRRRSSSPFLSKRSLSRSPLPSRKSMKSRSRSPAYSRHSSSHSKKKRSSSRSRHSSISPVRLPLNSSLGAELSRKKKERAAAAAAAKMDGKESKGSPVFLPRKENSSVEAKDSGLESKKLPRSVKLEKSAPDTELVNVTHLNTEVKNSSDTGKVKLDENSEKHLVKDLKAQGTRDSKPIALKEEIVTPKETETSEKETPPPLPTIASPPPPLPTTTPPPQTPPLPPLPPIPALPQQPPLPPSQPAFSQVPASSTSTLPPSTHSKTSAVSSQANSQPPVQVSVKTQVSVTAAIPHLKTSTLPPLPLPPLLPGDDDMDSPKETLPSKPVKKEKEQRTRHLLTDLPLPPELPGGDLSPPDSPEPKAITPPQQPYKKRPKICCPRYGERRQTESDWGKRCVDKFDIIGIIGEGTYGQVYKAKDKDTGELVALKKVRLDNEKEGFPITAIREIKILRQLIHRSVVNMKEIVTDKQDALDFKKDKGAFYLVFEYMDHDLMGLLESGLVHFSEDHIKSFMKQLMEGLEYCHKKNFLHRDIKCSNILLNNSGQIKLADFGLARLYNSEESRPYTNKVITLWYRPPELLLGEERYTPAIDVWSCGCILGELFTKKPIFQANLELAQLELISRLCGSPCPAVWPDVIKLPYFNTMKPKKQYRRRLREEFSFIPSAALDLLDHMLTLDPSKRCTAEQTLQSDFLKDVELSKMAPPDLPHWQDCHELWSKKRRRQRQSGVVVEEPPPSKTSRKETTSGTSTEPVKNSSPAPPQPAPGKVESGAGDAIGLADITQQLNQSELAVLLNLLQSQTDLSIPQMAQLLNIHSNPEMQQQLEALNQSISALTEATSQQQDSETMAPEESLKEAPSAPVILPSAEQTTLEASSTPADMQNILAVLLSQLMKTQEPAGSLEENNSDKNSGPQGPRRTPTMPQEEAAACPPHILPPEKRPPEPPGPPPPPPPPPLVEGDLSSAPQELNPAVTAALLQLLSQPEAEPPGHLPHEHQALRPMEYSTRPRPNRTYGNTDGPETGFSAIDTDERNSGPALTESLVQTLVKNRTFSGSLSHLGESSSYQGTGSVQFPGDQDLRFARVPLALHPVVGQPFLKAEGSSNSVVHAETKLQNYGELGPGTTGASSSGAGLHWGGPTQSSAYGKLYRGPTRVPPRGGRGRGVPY
row,Compound,IC50 [nM]
1,"CN1CC(C2C=NN3C(NCc4nc5cc(Cl)c(Cl)cc5[nH]4)=NC(N4CCOCC4)=NC23)C=N1 (configuration not stated) [US20250042903, Compound 1]",554
2,"FC(F)N1CC(C2C=NN3C(NCc4nc5cc(Cl)c(Cl)cc5[nH]4)=NC(N4CCOCC4)=NC23)C=N1 (configuration not stated) [US20250042903, Compound 2]",262
